Holding throughout (format): cell-based
One series concerns HIV-1 (IIIB). The series can be described thus: Antiviral assay in MT-4 cells. The conditions noted are these: Human immunodeficiency virus 1, MT4, 120 h; replication of HIV-1 (IIIB) in MT-4 cells, 5 days incubation, Cell Titer Glo. Here is the method:
Example 24: HIV MT-4 Antiviral and Cytotoxicity Assay
Antiviral Assay in MT-4 Cells
Compounds were tested in a high-throughput 384-well assay format for their ability to inhibit the replication of HIV-1 (IIIB) in MT-4 cells. Compounds were serially diluted (1:3) in DMSO on 384-well polypropylene plates and further diluted 200-fold into complete RPMI media (10% FBS, 1% P/S) using the Biotek Micro Flow and Labcyte ECHO acoustic dispenser. Each plate contained up to 8 test compounds, with negative (No Drug Control) and 5 μM AZT positive controls. MT-4 cells were pre-infected with 10 μL of either RPMI (mock-infected) or a fresh 1:250 dilution of HIV-1 IIIB concentrated virus stock. Infected and uninfected MT-4 cells were further diluted in complete RPMI media and added to each plate using a Micro Flow dispenser. After 5 days incubation in a humidified and temperature controlled incubator (37° C.), Cell Titer Glo (Promega) was added to the assay plates and chemiluminescence read using an Envision plate-reader. EC50 values were defined as the compound concentration that causes a 50% decrease in luminescence signal, and were calculated using a sigmoidal dose-response model to generate curve fits.

Series [1] in a line: Cytotoxicity assay in MT-4 cells. Conditions: human; uninfected MT-4 cells, 5 days incubation, Cell Titer Glo. As to the method:
Cytotoxicity Assay in MT-4 Cells Assays were performed as above except uninfected MT-4 cells were added to each well containing test compound. In addition, 10 μM puromycin was added to the last column of each assay plate to assess a base level of cytotoxicity.
A general note: Cellular ATP, detected with luciferase, serves as a proxy for viable cell number.

Another series deals with pLai RLuc reporter virus. Put plainly: HIV MT-4 serum shift antiviral reporter assay. The conditions noted are these: Human immunodeficiency virus 1, MT4, 72 h. As to the method: Example 25: HIV MT-4 Serum Shift Antiviral Reporter Assay
To quantify the amount of protein binding to human serum, compounds were serially diluted (1:3) in DMSO and acoustically transferred onto 384-well assay plates via a Labcyte ECHO robot. Each plate contained up to 8 test compounds, including negative and positive controls, (DMSO, 5 μM AZT respectively). Assay plates were prepared in duplicate, and tested in either CCM (cell culture media) or HS/CCM (human serum/cell culture media). MT-4 cells were first pre-infected with pLai RLuc reporter virus for 2 h at 37° C., then further diluted in either CCM (RPMI media, 10% FBS, 1% P/S) or HS/CCM (RPMI media, 10% FBS, 50% HS, 1% P/S), and subsequently added to each plate using a Biotek Micro Flow dispenser. After a 72-h incubation in a humidified and temperature controlled incubator (37° C.), Renilla Glo (Promega) was added to all assay plates and chemiluminescence read using an Envision plate-reader. EC50 values were defined as the compound concentration that causes a 50% decrease in luminescence signal, and were calculated using a sigmoidal dose-response model to generate curve fits. To determine the amount of protein binding, EC50 fold shifts (or EC50 shifts) were calculated by dividing EC50 (HS/CCM)/EC50 (CCM).

Setting [2] is: read-out: Antiviral Serum Shift RLuc 50% HS.
Setting [3] is: read-out: Antiviral Serum Shift RLuc CCM.

The structures appear in SMILES notation. Like-named read-outs stand apart in the source and are kept apart here.

What is called CC50 is the concentration at which the toxic effect on the cells reaches its halfway point. For `CO[C@@H]1[C@@H](OC)c2c(C(=O)NCc3c(F)cc(F)cc3F)c(=O)c(O)c3n2[C@]12CCCCN(C2)C3=O` (single isomer, unassigned) [Compound 13-4], the EC50 in the series on HIV-1 (IIIB) was found to be 10.7 nM. Half-maximal cytotoxicity in series [1] (CC50 at 5 days) was put at 30700 nM.
For `O=C(NCc1c(F)cc(F)cc1F)c1c2n3c(c(O)c1=O)C(=O)N1CCCC[C@]3(C[C@@H]2F)C1` (single isomer, unassigned) [Compound 8-1], the figures for the EC50 in the series with HIV-1 (IIIB), in the series on pLai RLuc reporter virus (setting [2]) and in the series with pLai RLuc reporter virus (setting [3]) were 0.86 nM, 25.4 nM and 0.429 nM, respectively. The same compound gave a CC50 at 5 days in series [1] of 7380 nM.
Consider `O=C(NCc1c(F)cc(F)cc1F)c1c2n3c(c(O)c1=O)C(=O)N1CCCC[C@]3(C1)[C@@H](O)[C@@H]2O` (single isomer, unassigned) [Compound 11-4], for which the EC50 is 4.02 nM with HIV-1 (IIIB), 20.5 nM in the series with pLai RLuc reporter virus (setting [2]) and 1.02 nM with pLai RLuc reporter virus (setting [3]). This compound registered a CC50 at 5 days in series [1] of 50000 nM.
Take `O=C(NCc1c(F)cc(F)cc1F)c1c2n3c(c(O)c1=O)C(=O)N1CCCC[C@]3(CC2)C1` [Compound 2, (6aS)-11-hydroxy-1,10-dioxo-N-(2,4,6-trifluorobenzyl)-1,3,4,5,6,7,8,10-octahydro-2,6a-methano[1,4]diazonino[9,1,2-cd]indolizine-9-carboxamide]: the EC50 in the series on HIV-1 (IIIB) worked out at 2.26 nM; in the series on pLai RLuc reporter virus (setting [2]), 20.8 nM; in the series on pLai RLuc reporter virus (setting [3]), 0.351 nM. Further, the CC50 at 5 days in series [1] was 6160 nM.
Take `O=C(NCc1c(F)cc(F)cc1F)c1c2n3c(c(O)c1=O)C(=O)N1CCCC[C@@]3(C1)[C@H](O)[C@H]2O` (single isomer, unassigned) [Compound 11-1]: the EC50 in the series on HIV-1 (IIIB) was 4 nM; in the series with pLai RLuc reporter virus (setting [2]) it was 3.91 nM; in the series with pLai RLuc reporter virus (setting [3]), 1.16 nM. In series [1], it took 50000 nM to reach half-maximal cytotoxicity (CC50 at 5 days).
For the compound `O=C(NCc1ccc(F)cc1F)c1c2n3c(c(O)c1=O)C(=O)N1CCCC[C@@]3(CC2)C1` [Compound 3, (6aR)—N-(2,4-difluorobenzyl)-11-hydroxy-1,10-dioxo-1,3,4,5,6,7,8,10-octahydro-2,6a-methano[1,4]diazonino[9,1,2-cd]indolizine-9-carboxamide], the figures for the EC50 in the series with HIV-1 (IIIB), in the series with pLai RLuc reporter virus (setting [2]) and in the series with pLai RLuc reporter virus (setting [3]) were 1.78 nM, 3.11 nM and 0.175 nM, respectively. In series [1], this compound returned a CC50 at 5 days of 4940 nM.
The corresponding values for `O=C(NCc1ccc(F)cc1F)c1c2n3c(c(O)c1=O)C(=O)N1CCCC[C@]3(C[C@H]2O)C1` (single isomer, unassigned) [Compound 10-1] are 4.98 nM, 121 nM, 0.715 nM and 9560 nM.
Compound `CO[C@H]1C=C[C@H](C)N2C[C@]13CCc1c(C(=O)NCc4c(F)cc(F)cc4F)c(=O)c(O)c(n13)C2=O` [Compound 22, (3S,6S,6aR)-11-hydroxy-6-methoxy-3-methyl-1,10-dioxo-N-(2,4,6-trifluorobenzyl)-1,3,6,7,8,10-hexahydro-2,6a-methano[1,4]diazonino[9,1,2-cd]indolizine-9-carboxamide] showed an EC50 in the series on HIV-1 (IIIB) of 1.8 nM. Moreover, in series [1], the midpoint of cytotoxicity, the CC50 at 5 days, lay at 1940 nM.
Regarding `CO[C@@H]1C[C@]23CCCCN(C2)C(=O)c2c(O)c(=O)c(C(=O)NCc4c(F)cc(F)cc4F)c1n23` (single isomer, unassigned) [Compound 12-4], the EC50 with HIV-1 (IIIB) amounted to 7.33 nM.
In the series on HIV-1 (IIIB), `CO[C@H]1CC[C@H](C)N2C[C@]13CCc1c(C(=O)NCc4ccc(F)cc4F)c(=O)c(O)c(n13)C2=O` [Compound 19-1, (1R,11S,14S)—N-[(2.4 difluorophenyl)methyl]-7-hydroxy-14-methoxy-11-methyl-6,9-dioxo-10,15-diazatetracyclo[6.6.1.11,10.04,15]hexadeca-4.7 diene-5-carboxamide] returned an EC50 of 2.1 nM. Besides, the midpoint of cytotoxicity in series [1], the CC50 at 5 days, lay at 4600 nM.
For `C[C@H]1CC[C@H](O)[C@]23CCc4c(C(=O)NCc5c(F)cc(F)cc5F)c(=O)c(O)c(n42)C(=O)N1C3` [Compound 23-1, (3S,6S,6aR)-6,11-dihydroxy-3-methyl-1,10-dioxo-N-(2,4,6-trifluorobenzyl)-1,3,4,5,6,7,8,10-octahydro-2,6a-methano[1,4]diazonino[9,1,2-cd]indolizine-9-carboxamide] the same measures were 5.7 nM and 26600 nM.
Consider `O=C(NCc1c(F)cc(F)cc1F)c1c2n3c(c(O)c1=O)C(=O)N1CCCC[C@]3(C1)[C@H](O)[C@H]2O` (single isomer, unassigned) [Compound 11-2], for which the EC50 was 48.4 nM in the series with pLai RLuc reporter virus (setting [2]) and 1.52 nM in the series on pLai RLuc reporter virus (setting [3]).
Consider `CO[C@@H]1[C@@H](OC)c2c(C(=O)NCc3c(F)cc(F)cc3F)c(=O)c(O)c3n2[C@@]12CCCCN(C2)C3=O` (single isomer, unassigned) [Compound 13-1], for which, in the series on HIV-1 (IIIB), the EC50 amounted to 1.7 nM. In series [1], this compound yielded a CC50 at 5 days of 27800 nM.
`CO[C@H]1C=C[C@H](C)N2C[C@]13CCc1c(C(=O)NCc4ccc(F)cc4F)c(=O)c(O)c(n13)C2=O` [Compound 19-2, (1R,11S,14S)—N-[(2.4 difluorophenyl)methyl]-7-hydroxy-14-methoxy-11-methyl-6,9-dioxo-10,15-diazatetracyclo[6.6.1.11,10.04,15]hexadeca-4,7,12-triene-5-carboxamide]: the EC50 with HIV-1 (IIIB) came to 0.86 nM. In series [1], this compound displayed a CC50 at 5 days of 1870 nM.
In the series with HIV-1 (IIIB), `O=C(NCc1c(F)cc(F)cc1F)c1c2n3c(c(O)c1=O)C(=O)N1CCCC[C@@]3(C[C@H]2F)C1` (single isomer, unassigned) [Compound 8-2] had an EC50 of 2.29 nM.
`O=C(NCc1cccc(Cl)c1F)c1c2n3c(c(O)c1=O)C(=O)N1CCCC[C@]3(CC2)C1` [Compound 6, (6aS)—N-(3-chloro-2-fluorobenzyl)-11-hydroxy-1,10-dioxo-1,3,4,5,6,7,8,10-octahydro-2,6a-methano[1,4]diazonino[9,1,2-cd]indolizine-9-carboxamide] returned an EC50 in the series with HIV-1 (IIIB) of 2.6 nM. This compound also showed a CC50 at 5 days in series [1] of 3680 nM.
`CO[C@@H]1c2c(C(=O)NCc3c(F)cc(F)cc3F)c(=O)c(O)c3n2[C@]2(CCCCN(C2)C3=O)[C@H]1OC` (single isomer, unassigned) [Compound 13-2] returned an EC50 in the series with HIV-1 (IIIB) of 1.1 nM. This compound showed a CC50 at 5 days in series [1] of 24700 nM.
In turn, `O=C(NCc1c(F)cc(F)cc1F)c1c2n3c(c(O)c1=O)C(=O)N1CCCC[C@]3(CC2CO)C1` (single isomer, unassigned) [Compound 16] returned an EC50 in the series with HIV-1 (IIIB) of 2.8 nM. Besides, the CC50 at 5 days in series [1] was 7450 nM.
On to `CO[C@H]1C[C@@]23CCCCN(C2)C(=O)c2c(O)c(=O)c(C(=O)NCc4c(F)cc(F)cc4F)c1n23` (single isomer, unassigned) [Compound 12-3], for which the EC50 in the series with HIV-1 (IIIB) amounted to 4.47 nM. Further, in series [1], the CC50 at 5 days came out at 14800 nM.
Turning to `CO[C@H]1C=C[C@H](C)N2C[C@]13CC(O)c1c(C(=O)NCc4ccc(F)cc4F)c(=O)c(O)c(n13)C2=O` (stereo partly drawn) [Compound 19-3, (1R,11S,14S)—N-[(2.4 difluorophenyl)methyl]-3.7 dihydroxy-14-methoxy-11-methyl-6,9-dioxo-10,15-diazatetracyclo[6.6.1.11,10.04,15]hexadeca-4,7,12-triene-5-carboxamide], the EC50 in the series with HIV-1 (IIIB) came to 1.2 nM. Moreover, the 50% cytotoxic concentration (CC50) at 5 days in series [1] was determined as 6950 nM.
With `CO[C@@H]1c2c(C(=O)NCc3c(F)cc(F)cc3F)c(=O)c(O)c3n2[C@@]2(CCCCN(C2)C3=O)[C@H]1OC` (single isomer, unassigned) [Compound 13-3], in the series with HIV-1 (IIIB), the EC50 was 9.5 nM. In addition, in series [1], it took 10100 nM to reach half-maximal cytotoxicity (CC50 at 5 days).

Source of the values: patent publication US12122776B2, “Tetracyclic compounds and uses thereof” (Gilead Sciences, Inc., priority 2020, dated 2024).
